# Measurements taken from publication PMC10180349 (Molecules, 2023).
# Tests used:
# MCF 10A = type: cell-based; settings: Homo sapiens, 48 h
# [1] = tested on: microtubules in MDA-MB-231 cells; test: Immunofluorescence staining of microtubules (α-tubulin antibody); type: cell-based, Human; settings: MDA-MB-231, 0.1 nM, 48 h
# Procedure: Cells were fixed with 4% paraformaldehyde for 20 min, permeabilized with 0.1%Triton X-100 for 5 min, and blocked with 1% BSA for 1.5 h. Next, cells were incubated with α-tubulin antibody (1:400 Abcam, AB52866) at 4 °C overnight, followed by the Alexa Fluor 488 conjugated goat anti-rabbit IgG secondary antibody (1:300, ZF-0511, Zhongshan Goldenbridge Biotechnology, Beijing, China). Finally, nuclei were stained with DAPI for 4 min. Stained cells were observed using a laser confocal microscope (LSM700; Zeiss, Gottingen, Germany). The PTX-treated group was used as a positive control.
# MDA-MB-231 cells = test: Cell cycle analysis (PI, flow cytometry); type: cell-based, Human; settings: 48 h
# Procedure: Cell cycle assay was performed using the DNA Content Quantitation Assay (Solarbio, Beijing, China). […] Then, the fixed cells were incubated with RNase A solution at 37 °C for 30 min and stained with PI in the dark for 30 min at 4 °C. The red fluorescence was detected using a flow cytometer (BD FACSCalibur) at 488 nm and analyzed by FlowJo Software (Tree Star Inc, Ashland, OR, USA). The PTX-treated group was set as a positive control.
# Bax = test: Western blot of xenograft tumor tissues; type: in vivo, Female BALB/c nude mice; settings: 6.87, 10.30, 13.73 mg/kg q3d, dose-dependent, p < 0.01
# Procedure: (§1) The removed tumor tissues were cut into pieces and homogenized in RIPA lysis buffer (Cat#P0013B; Beyotime, Shanghai, China) containing PMSF protease inhibitor (Cat#ST506; Beyotime, Shanghai, China) (RIPA: PMSF = 100:1) using a glass homogenizer on ice for 30 min. The lysates were harvested by centrifugation (12,000 rpm) at 4 °C for 5 min. The protein concentrations were measured by BCA Protein Assay Kit (Beyotime, Shanghai, China) and boiled at 95 °C for 5 min. Then, equal amounts of proteins (30 μg) from five groups were separated by 10% SDS-PAGE and transferred to PVDF membranes (EMD Millipore, Billerica, MA, USA). The membranes were blocked with 5% non-fat milk for 2 h and washed with TBST buffer. Next, membranes were incubated with primary antibodies (β-actin, cleaved caspase-3, Bax, Bcl-2) at a dilution of 1:1000 at 4 °C overnight, followed by the goat anti-rabbit HRP-conjugated secondary antibody (1:5000) for 2 h at room temperature. β-actin was used as an internal control. Protein bands were visualized by a chemiluminescence detection system (Bio-Rad, Hercules, CA, USA) and quantitated using the Image-J software.
# Bcl-2 = test: Western blot of xenograft tumor tissues; type: in vivo, Female BALB/c nude mice; settings: 6.87, 10.30, 13.73 mg/kg q3d, dose-dependent, p < 0.01
# Procedure: as §1
# cleaved caspase-3 = test: Western blot of xenograft tumor tissues; type: in vivo, Female BALB/c nude mice; settings: 6.87, 10.30, 13.73 mg/kg q3d, dose-dependent, p < 0.01
# Procedure: as §1
# Ki-67 = Ki-67 immunohistochemical staining of tumor slides; type: in vivo, Female BALB/c nude mice; settings: 6.87, 10.30, 13.73 mg/kg q3d, p < 0.01
# Procedure: The tumor slides of MDA-MB-231 xenograft mice were deparaffinized and rehydrated as per the method described above. Next, slides were boiled in citrate antigen retrieval solution for 2 min and then blocked with 3% H2O2 for 10 min. After washing, slides were incubated with primary Ki-67 antibody (1:400, Abcam AB15580) at 4 °C overnight, followed by incubation with the goat anti-rabbit HRP-conjugated secondary antibody (1:500) for 1 h at RT. Finally, slides were stained with DAB chromogenic reagent and hematoxylin. Images were visualized using a Zeiss microscope (Carl Zeiss Meditec AG, Jena, Germany). Three separate visual fields were randomly selected from each slice. The percentage of the positive area was semi-quantitatively analyzed with the Image-J software.
# [2] = tested on: MDA-MB-231 xenograft tumor tissue; test: TUNEL assay of tumor slides; type: in vivo, Female BALB/c nude mice; settings: PTX-TTHA 6.87-13.73 mg/kg q3d; PTX 10 mg/kg q7d
# Procedure: The tumor slides of MDA-MB-231 xenograft mice were deparaffinized and rehydrated as per the method described above. Then, the TUNEL assay was performed according to the manufacturer’s instructions. Briefly, slides were permeabilized with proteinase K for 20 min and blocked with 3% H2O2 for 10 min. After washing, slides were incubated with Biotin labeling solution for 1 h, and the nucleus was counterstained with DAPI for 1 min. The localized red fluorescence of the apoptotic cells was visualized by fluorescence microscopy. Two experienced pathologists randomly selected 10 (×200) fields for every slide and then analyzed them. The percentage of TUNEL-positive cells among total cells was semi-quantitatively measured with the Image-J software.
# MDA-MB-231 [3] = settings: SI = IC50 MCF 10A/IC50 MDA-MB-231, 48 h
# MCF-7 = settings: SI = IC50 MCF 10A/IC50 MCF-7, 48 h
# MDA-MB-231 [4] = test: cells; settings: Homo sapiens, MDA-MB-231, 48 h
# 4T1 = test: cells; settings: Mus musculus, 4T1, 48 h
# [5] = tested on: MDA-MB-231 xenograft breast tumor model; test: In vivo antitumor assay; settings: medium dose 10.30 mg/kg (MPTX-TTHA), q3d, tail vein, 21 days
# [6] = Solubility experiment in water
# [7] = Organ-body indices and signs of toxicity in the xenograft model; settings: q3d, 3 weeks
structure (smiles),measurement,setting,value
"CC(=O)O[C@H]1C(=O)[C@@]2(C)[C@H]([C@H](OC(=O)c3ccccc3)[C@]3(O)C[C@H](OC(=O)[C@H](OC(=O)CN(CCN(CCN(CCN(CC(=O)O)CC(=O)O)CC(=O)O)CC(=O)O)CC(=O)O)[C@@H](NC(=O)c4ccccc4)c4ccccc4)C(C)=C1C3(C)C)[C@]1(OC(C)=O)CO[C@@H]1C[C@@H]2O [PTX-TTHA, 3,6,9,12-Tetraazatetradecanedioic acid, 3,6,9,12-tetrakis(carboxymethyl)-1-[2-(benzoylamino)-1-[[[6,12b-bis(acetyloxy)-12-(benzoyloxy)-2a,3,4,4a,5,6,9,10,11,12,12a,12b-dodecahydro-4,11-dihydroxy-4a,8,13,13-tetramethyl-5-oxo-7,11-methano-1H-cyclodeca [3, 4]benz [1,2-b]oxet-9-yl]oxy]carbonyl]-2-phenylethyl] ester]",IC50,MCF 10A,367 ± 8.2 nM
same,microtubule fluorescence intensity compared with the control group,[1],enhanced fluorescence intensity of microtubules
same,cells in G2/M phase,"MDA-MB-231 cells; 0.1 nM, control 8.74 ± 0.60%",23.06 ± 0.92%
same,cells in G2/M phase,MDA-MB-231 cells; 1 nM,51.40% ± 0.45
same,Bax expression level in tumor compared with the control group,Bax,significantly upregulated
same,Bcl-2 expression level in tumor compared with the control group,Bcl-2,significantly downregulated
same,cleaved caspase-3 expression level in tumor compared with the control group,cleaved caspase-3,significantly upregulated
same,Ki-67 expression in tumor tissues compared with the control group,Ki-67,significantly reduced
same,TUNEL signal of apoptotic cells in tumor tissue,[2],strong red fluorescent signal
same,selectivity index (SI),MDA-MB-231 [3],28.97
same,selectivity index (SI),MCF-7,23.19
same,IC50,MDA-MB-231 [4],12.7 ± 1.34 nM
same,IC50,4T1,17.2 ± 1.96 nM
same,tumor inhibition rate,[5],~70.51%
same,appearance of sample in water (solubility by photograph),[6]; diluted to 5 mg/mL by water,completely clear
same,"water solubility, fold higher than that of paclitaxel",[6]; water,about 7140 fold
same,signs of toxicity during treatment,"[7]; 6.87, 10.30, 13.73 mg/kg, tail vein",No noticeable signs of toxicity were observed
same,"organ-body index, Heart","[7]; HPTX-TTHA, 13.73 mg/kg",5.56 ± 0.49 mg/g
same,"organ-body index, Kidney","[7]; HPTX-TTHA, 13.73 mg/kg",16.09 ± 0.50 mg/g
same,"organ-body index, Liver","[7]; HPTX-TTHA, 13.73 mg/kg",63.73 ± 5.63 mg/g
same,"organ-body index, Lung","[7]; HPTX-TTHA, 13.73 mg/kg",7.28 ± 0.73 mg/g
same,"organ-body index, Spleen","[7]; HPTX-TTHA, 13.73 mg/kg",6.20 ± 0.65 mg/g
same,"organ-body index, Heart","[7]; LPTX-TTHA, 6.87 mg/kg",5.56 ± 0.63 mg/g
same,"organ-body index, Kidney","[7]; LPTX-TTHA, 6.87 mg/kg",16.03 ± 0.49 mg/g
same,"organ-body index, Liver","[7]; LPTX-TTHA, 6.87 mg/kg",63.63 ± 4.54 mg/g
same,"organ-body index, Lung","[7]; LPTX-TTHA, 6.87 mg/kg",7.29 ± 0.79 mg/g
same,"organ-body index, Spleen","[7]; LPTX-TTHA, 6.87 mg/kg",6.35 ± 0.51 mg/g
same,"organ-body index, Heart","[7]; MPTX-TTHA, 10.30 mg/kg",5.49 ± 0.15 mg/g
same,"organ-body index, Kidney","[7]; MPTX-TTHA, 10.30 mg/kg",16.05 ± 0.47 mg/g
same,"organ-body index, Liver","[7]; MPTX-TTHA, 10.30 mg/kg",63.20 ± 5.17 mg/g
same,"organ-body index, Lung","[7]; MPTX-TTHA, 10.30 mg/kg",7.16 ± 0.61 mg/g
same,"organ-body index, Spleen","[7]; MPTX-TTHA, 10.30 mg/kg",6.16 ± 1.05 mg/g
